IC50 data for 83 compounds are collected here from ChEMBL document CHEMBL1126780, “Selective non-nucleoside HIV-1 reverse transcriptase inhibitors. New 2,3-dihydrothiazolo[2,3-a]isoindol-5(9bH)-ones and related compounds with anti-HIV-1 activity” (J Med Chem, 1993).

One experiment relates to MT2. As to the kind of experiment: Inhibitory concentration which prevents the spread of HIV-1 IIIB infection in MT2 T-lymphoid cells. It counts as functional, cell-based. The conditions noted are these: Homo sapiens.
The target in experiment [1] is Human immunodeficiency virus type 1 reverse transcriptase (Human immunodeficiency virus 1, UniProt Q72547). As to the kind of experiment: Inhibitory activity against HIV-1 reverse transcriptase (HIV-RT).

Structures are written as SMILES. Counter-ions that a name gives are not always drawn. Bounds are passed on as bounds.

For the compound `O=C1c2ccc(Cl)cc2[C@@]2(c3ccccc3)SCCN12`, the figures for the concentration for half-maximal inhibition (IC50) (in the experiment with MT2; in experiment [1]) were 0.074 µM and 0.09 µM, respectively.

Consider `Cc1cccc([C@]23SCCN2C(=O)c2ccccc23)c1`, for which the results for the IC50 (with MT2; in experiment [1]) were 0.051 µM and 0.035 µM, respectively.

For the compound `S=C1c2ccccc2C2(c3ccccc3)SCCN12` (stereo not given), in experiment [1], the IC50 was 3.5 µM. In other words, the single-digit micromolar range.

Consider `Cc1cc(C)cc([C@]23SCCN2C(=O)c2ccccc23)c1`, for which the IC50 in the experiment with MT2 turned out to be 0.01 µM; in experiment [1], 0.016 µM.

Compound `O=C1c2ccccc2C2(c3cccnc3)SCCN12` (stereo not given) yielded an IC50 in experiment [1] of 28 µM.

The compound `CC(C)c1cccc(C23SCCN2C(=O)c2ccccc23)c1` (stereo not given) came in with an IC50 in experiment [1] of 2.1 µM. This IC50 lies about 13-fold lower than the previous one.

With `O=C1c2ccccc2C2(c3ccccc3)CCCN12` (stereo not given), the concentration for half-maximal inhibition (IC50) in experiment [1] worked out at 15 µM.

In experiment [1], `O=C1c2cc(Cl)c(Cl)cc2C2(c3ccccc3)SCCN12` (stereo not given) gave an IC50 of 4.48 µM.

The compound `CC(C)=CCN1Cc2cccc3[nH]c(=S)n(c23)C[C@@H]1C` showed a 50% inhibitory concentration (IC50) with MT2 of 0.217 µM.

For `O=C1c2ccccc2[C@@]2(c3ccccc3)SCCN12`, the IC50 in the experiment with MT2 amounted to 0.392 µM; in experiment [1] it was 0.28 µM.

Compound `Cc1cc(C)cc(C23SCCN2C(=O)c2ccccc23)c1` (stereo not given) yielded a 50% inhibitory concentration (IC50) in experiment [1] of 0.084 µM. In other words, the double-digit nanomolar range.

For the compound `O=C1c2ccccc2C2(c3ccccc3)OCCN12` (stereo not given), it took 6.1 µM to reach half-maximal inhibition in experiment [1] (IC50). This IC50 is about 73-fold higher than that of the compound before.

`O=C(O)[C@H]1CSC2(c3ccccc3)c3ccccc3C(=O)N12` (stereo not given in full) gave a half-maximal inhibitory concentration (IC50) in experiment [1] of over 100 µM.

In turn, `C[C@@H]1CN2C(=O)c3ccccc3C2(c2ccccc2)O1` (stereo not given in full) returned an IC50 in experiment [1] of 37.6 µM.

Compound `O=C1c2ccccc2C2(c3c4ccccc4cc4ccccc34)SCCN12` (stereo not given) registered an IC50 in experiment [1] of 0.9 µM. This IC50 is about 42-fold lower than that of the compound before.

In the case of `O=C1c2ccccc2C2(c3cccc([N+](=O)[O-])c3)SCCN12` (stereo not given), the midpoint of inhibition in experiment [1], the IC50, lay at 0.86 µM.

Regarding `O=C1c2ccc3ccccc3c2C2(c3ccccc3)SCCN12` (stereo not given), in experiment [1], the half-inhibitory concentration (IC50) is 26 µM.

In experiment [1], `O=C1c2ccccc2C2(c3ccccc3)Sc3ccccc3CN12` (stereo not given) yielded an IC50 of 40 µM.

In experiment [1], `Cc1ccc(C23SCCN2C(=O)c2ccccc23)cc1C` (stereo not given) had an IC50 of 0.39 µM.

In experiment [1], `O=C1c2ccccc2C2(c3cccc(C(F)(F)F)c3)SCCN12` (stereo not given) had an IC50 of 1.05 µM.

`O=C1c2ccccc2[C@]2(c3ccccc3)SCCN12`: in experiment [1], half-maximal inhibition (IC50) was put at 39.6 µM. This IC50 is about 38-fold higher than that of the compound before.

Regarding `O=C1c2cccnc2C2(c3ccccc3)SCCN12` (stereo not given), the IC50 in experiment [1] was 3.45 µM.

`CC(C)c1ccc(C23SCCN2C(=O)c2ccccc23)cc1` (stereo not given): the 50% inhibitory concentration (IC50) in experiment [1] is 10 µM.

In the case of `O=C1c2ccccc2C2(c3ccccc3)SCCCN12` (stereo not given), the half-maximal inhibitory concentration (IC50) in experiment [1] came out at 2.2 µM.

In turn, `O=C1c2c(ccc3ccccc23)C2(c3ccccc3)SCCN12` (stereo not given) yielded a half-inhibitory concentration (IC50) in experiment [1] of over 100 µM.

Regarding `Cc1ccccc1C12SCCN1C(=O)c1ccccc12` (stereo not given), in experiment [1], the IC50 was determined as 6.3 µM.

`Cc1ccnc2c1NC(=O)c1cccnc1N2C1CC1` [NEVIRAPINE] came in with a half-maximal inhibitory concentration (IC50) in the experiment with MT2 of 0.303 µM.

`O=C1c2ccccc2C2(c3ccncc3)SCCN12` (stereo not given) displayed an IC50 in experiment [1] of over 30 µM.

`Nc1ccc2c(c1)C1(c3ccccc3)SCCN1C2=O` (stereo not given) returned an IC50 in experiment [1] of 4.5 µM.

Regarding `O=C1c2cc(Cl)ccc2C2(c3ccccc3)SCCN12` (stereo not given), in experiment [1], the IC50 was 24 µM.

Consider `CCNc1cccnc1N1CCN(C(=O)c2cc3cc(OC)ccc3[nH]2)CC1` [ATEVIRDINE MESYLATE], for which the IC50 in the experiment on MT2 was found to be 1.59 µM.

The compound `COC(=O)[C@H]1CSC2(c3ccccc3)c3ccccc3C(=O)N12` (stereo not given in full) showed an IC50 in experiment [1] of 0.22 µM.

In experiment [1], `Cc1cccc(C23SCCN2C(=O)c2cccnc23)n1` (stereo not given) came in with an IC50 of 6.6 µM.

`Cc1cccc(C23SCCN2C(=O)c2ccccc23)c1C` (stereo not given): the IC50 in experiment [1] was determined as 1.65 µM.

`O=C1c2ccccc2C2(c3ccc(Cl)c(Cl)c3)SCCN12` (stereo not given) returned a concentration for half-maximal inhibition (IC50) in experiment [1] of 4 µM.

`C[C@H]1CN2C(=O)c3ccccc3C2(c2ccccc2)O1` (stereo not given in full): in experiment [1], the IC50 was over 100 µM.

In the case of `CCc1cc(NCc2nc3c(Cl)ccc(Cl)c3o2)c(O)nc1C` [L-697661], the half-inhibitory concentration (IC50) in the experiment on MT2 is 0.08 µM; in experiment [1], 0.001 µM.

For the compound `O=C1c2ccccc2C2(c3ccccc3)SCCN12` (stereo not given), in experiment [1], the IC50 stood at 0.7 µM.

In turn, `O=C1c2ccccc2C2(c3ccccc3)CCCCN12` (stereo not given) returned an IC50 in experiment [1] of 75.5 µM. This IC50 lies about 110-fold higher than the previous one.

The compound `O=C1c2ccccc2C2(c3ccccc3)NCCN12` (stereo not given) had an IC50 in experiment [1] of over 100 µM.

`O=C1c2ccccc2C2(c3ccccc3)NCCCN12` (stereo not given): in experiment [1], the concentration for half-maximal inhibition (IC50) was over 10 µM.

`O=C1c2ccccc2C2(c3cccc4ccccc34)SCCN12` (stereo not given): in experiment [1], the IC50 came out at 0.13 µM. This counts as sub-micromolar.

For the compound `O=C1c2ccccc2C2(c3cccs3)SCCN12` (stereo not given), the half-maximal inhibitory concentration (IC50) in experiment [1] came out at 2.65 µM.

As to `O=C1c2ccccc2C2(c3ccccn3)SCCN12` (stereo not given), half-maximal inhibition in experiment [1] (IC50) was put at 5.85 µM.

Take `Cc1ccnc(C23SCCN2C(=O)c2cccnc23)c1` (stereo not given): the 50% inhibitory concentration (IC50) is 7.8 µM with MT2 and 4.6 µM in experiment [1].

As for `O=C1c2ccncc2C2(c3ccccc3)SCCN12` (stereo not given), the IC50 in experiment [1] came to 17 µM. This lies in the double-digit micromolar range.

`COc1ccc(C23SCCN2C(=O)c2ccccc23)cc1` (stereo not given) displayed an IC50 in experiment [1] of over 30 µM.

As for `O=C1c2ccccc2C2(c3ccc(Cl)cc3)SCCN12` (stereo not given), the half-inhibitory concentration (IC50) in experiment [1] was 4 µM. In other words, the single-digit micromolar range.

Consider `COc1cccc(C23SCCN2C(=O)c2ccccc23)c1` (stereo not given), for which the IC50 in experiment [1] was determined as 0.97 µM. Against the preceding compound, the IC50 is about 4.1-fold lower.

In turn, `Cc1cccc(C23SCCN2C(=O)c2ccccc23)n1` (stereo not given) gave a half-inhibitory concentration (IC50) in experiment [1] of 4.1 µM.

Consider `O=C1c2ncccc2C2(c3ccccc3)SCCN12` (stereo not given), for which the concentration for half-maximal inhibition (IC50) in experiment [1] was over 100 µM.

In experiment [1], `Cc1ccc2c(c1)C1(c3ccccc3)SCCN1C2=O` (stereo not given) gave an IC50 of 0.72 µM. This counts as sub-micromolar.

As for `O=C1c2ccccc2C2(c3cccc(O)c3)SCCN12` (stereo not given), in experiment [1], the half-inhibitory concentration (IC50) was 12.7 µM. This IC50 lies about 18-fold higher than the previous one.

On to `O=C1c2ccccc2[C@@]2(c3cccc4ccccc34)SCCN12`, for which the IC50 in the experiment with MT2 is 0.046 µM; in experiment [1], 0.15 µM.

In experiment [1], `Cc1ccnc(C23SCCN2C(=O)c2ccccc23)c1` (stereo not given) had an IC50 of 1 µM.

`O=C1c2cccc(Cl)c2C2(c3ccccc3)SCCN12` (stereo not given): in experiment [1], half-maximal inhibition (IC50) was put at 0.29 µM. This IC50 lies about 3.4-fold lower than the previous one.

Take `O=C1c2ccc(Cl)cc2C2(c3ccccc3)SCCN12` (stereo not given): in experiment [1], 0.19 µM corresponded to half-maximal inhibition (IC50).

Turning to `Cc1ccc2c(c1)C(=O)N1CCSC21c1ccccc1` (stereo not given), in experiment [1], inhibition was half-maximal at 10 µM (IC50).

`Cc1ccc(C23SCCN2C(=O)c2ccccc23)cc1` (stereo not given): the half-inhibitory concentration (IC50) in experiment [1] amounted to 0.77 µM.

`O=C1c2cnccc2C2(c3ccccc3)SCCN12` (stereo not given): the half-inhibitory concentration (IC50) in experiment [1] is over 100 µM.

Consider `O=C1c2ccccc2C2(c3ccccc3)N1CC[S+]2[O-]` (stereo not given), for which the IC50 in experiment [1] stood at 1.45 µM.

In turn, `Nc1cccc(C23SCCN2C(=O)c2ccccc23)c1` (stereo not given) displayed an IC50 in experiment [1] of 4.6 µM.

`NC(=O)[C@H]1CSC2(c3ccccc3)c3ccccc3C(=O)N12` (stereo not given in full): the IC50 in experiment [1] is 59 µM.

Take `O=C1c2ccccc2C2(c3cccc4c3CCC4)SCCN12` (stereo not given): in experiment [1], inhibition was half-maximal at 0.9 µM (IC50).

Consider `C[C@H]1COC2(c3ccccc3)c3ccccc3C(=O)N12` (stereo not given in full), for which the IC50 in experiment [1] was 73 µM.

`O=C1c2ccc(C(F)(F)F)cc2C2(c3ccccc3)SCCN12` (stereo not given) returned an IC50 in experiment [1] of 17.7 µM. Against the preceding compound, the IC50 is about 4.1-fold lower.

On to `Cc1cccc(C23SCCN2C(=O)c2ccccc23)c1` (stereo not given), for which the IC50 in experiment [1] is 0.035 µM.

As to `O=C1c2ccccc2C2(c3cc(Cl)cc(Cl)c3)SCCN12` (stereo not given), in experiment [1], the half-inhibitory concentration (IC50) is 0.59 µM.

The compound `O=C1c2cccnc2C2(c3ccccn3)SCCN12` (stereo not given) registered an IC50 in experiment [1] of 23 µM.

For `Cc1ccc(C)c(C23SCCN2C(=O)c2ccccc23)c1` (stereo not given), the concentration for half-maximal inhibition (IC50) in experiment [1] is 0.97 µM.

`Cc1cccc2c1C(=O)N1CCSC21c1ccccc1` (stereo not given) had an IC50 in experiment [1] of 8 µM. This IC50 lies about 8.2-fold higher than the previous one.

`C[C@@H]1COC2(c3ccccc3)c3ccccc3C(=O)N12` (stereo not given in full): the half-inhibitory concentration (IC50) in experiment [1] is 40 µM.

Take `O=C1c2ccccc2C2(c3ccco3)SCCN12` (stereo not given): the half-inhibitory concentration (IC50) in experiment [1] is 1.35 µM.

On to `O=C1c2ccccc2C2(c3ccc[nH]3)SCCN12` (stereo not given), for which the 50% inhibitory concentration (IC50) in experiment [1] is over 100 µM.

In the case of `O=C1c2ccc([N+](=O)[O-])cc2C2(c3ccccc3)SCCN12` (stereo not given), in experiment [1], half-maximal inhibition (IC50) was put at 10 µM. That is a double-digit micromolar value.

With `COc1ccc2c(c1)C1(c3ccccc3)SCCN1C2=O` (stereo not given), the midpoint of inhibition in experiment [1], the IC50, lay at 3.6 µM.

In the case of `O=C1c2cc3ccccc3cc2C2(c3ccccc3)SCCN12` (stereo not given), the 50% inhibitory concentration (IC50) in experiment [1] was found to be 10 µM.

Take `O=C1c2ccccc2C2(c3cccc(Cl)c3)SCCN12` (stereo not given): half-maximal inhibition in experiment [1] (IC50) was put at 0.14 µM. Against the preceding compound, the IC50 is about 71-fold lower.

Take `O=C1c2ccccc2C2(c3ccccc3)N1CCS2(=O)=O` (stereo not given): the 50% inhibitory concentration (IC50) in experiment [1] is over 10 µM.

In turn, `COc1ccc2c(c1)C(=O)N1CCSC21c1ccccc1` (stereo not given) displayed a 50% inhibitory concentration (IC50) in experiment [1] of 4 µM.

For `CCc1cccc(C23SCCN2C(=O)c2ccccc23)c1` (stereo not given), in experiment [1], 1.1 µM corresponded to half-maximal inhibition (IC50).

As for `O=C1c2ccccc2C2(c3ccccc3)OCCCN12` (stereo not given), it took 51 µM to reach half-maximal inhibition in experiment [1] (IC50).

The compound `N#Cc1cccc(C23SCCN2C(=O)c2ccccc23)c1` (stereo not given) showed a half-maximal inhibitory concentration (IC50) in experiment [1] of 1.81 µM.
